Measured values published in patent EP4410284A1, “COMPOUND AND METHOD FOR THE TREATMENT OF ZELLWEGER SPECTRUM DISORDER” (Apteeus, priority 2023, dated 2024).
Like-named read-outs stand apart in the source and are kept apart here.

Key:
GM16513 cells [1] = experiment: Catalase import immunofluorescence, high-content screening (% importing cells); format: cell-based, human; settings: GM16513 cells, 3 days; for Emax: read-out: Max Efficacy (% Importing cells)
GM16513 cells [2] = format: cell-based; settings: 3 days, PI positive cells (dead cells)
Experimental: (§4) Images were acquired using the EnSight multimode plate reader (PerkinElmer) and analysis was done using Columbus analysis software (PerkinElmer). […] Then the total number of cells and the % of dead cells was calculated.
(§5) All HDAC inhibitors were tested at 1.3 and 10 µM for 3 days on GM16513 and PEX405 cells.

PEX405 cells [3] = experiment: Catalase import immunofluorescence, high-content screening (% importing cells); format: cell-based, human; settings: for Concentration (lower dose leading to the maximum effect) / Importing cells (%): PEX405 (PEX1); for Importing cells (%): at the lower dose leading to the maximum effect (see E12); for % Importing cells: PEX405 cells, 3 days
Experimental: The cytotoxicity was assessed in parallel using a double nucleus staining with Hoechst 33342 and Propidium Iodide (PI).

PEX405 cells [4] = format: cell-based; settings: 3 days, PI positive cells (dead cells)
Experimental: as §4, §5

GM 16865 = experiment: Catalase import immunofluorescence (% importing cells); format: cell-based, human; settings: GM 16865 (PEX26); for Importing cells (%): at the lower dose leading to the maximum effect (see E22)
Experimental: (§1) Primary fibroblasts were seeded at 500-700 cells per well in 384-well plates and grown at 37°C overnight. Cells were treated with test compounds or 0.1% DMSO for 3 days. After 3 days and a wash with PBS, cells were fixed with 4% paraformaldehyde (Electron Microscopy Sciences) in PBS for 20 minutes. After 3 washes with PBS, the cells were permeabilized and blocked with 0.3% Triton X-100, 1% BSA in PBS for 30 minutes at room temperature followed by 3 washes with 1% BSA in PBS. The cells were incubated with a rabbit Catalase polyclonal antibody (#12980 Cell signaling) overnight at 4°C. Following 3 washes with PBS containing 0.1% Tween-20, the cells were incubated for 1 h at room temperature with a conjugated goat anti-rabbit secondary antibody Alexa Fluor 647 (Ab150083-Abcam). The cells were then washed 3 times with PBS and Hoechst 33342 (H3570-ThermoFisher Scientific) + HCS Cellmask Blue (H32720 - ThermoFisher Scientific) staining was performed at 0.1 µg/ml and 0.4 µg/mL respectively for 30 minutes at room temperature. The cells were finally washed 3 times with PBS and fluorescent images were acquired using the INCell Analyzer 6000 imaging platform (GE Healthcare Life Sciences).
(§2) Images analysis was done using Columbus analysis software (PerkinElmer). DAPI channel was used to find nuclei (Hoechst 33342) and cytoplasm (HCS CellMask Blue) and border objects were removed. Cy5 channel (AlexaFluor 647) was used to find spots corresponding to peroxisomes which correctly import catalase. Cells were classified as importing or non-importing cells using a linear classifier method after training with images of wells containing Healthy cells and PEX1 deficient cells. The number of importing or non-importing cells was calculated. Finally, results were expressed as % of importing cells.
(§3) Among the HDAC inhibitors of example 2, 4 were tested on other cells which are PEX1, PEX6 or PEX26 deficient.

GM 17398 = experiment: as above; format: cell-based, human; settings: GM 17398 (PEX26 deficient); for Importing cells (%): at the lower dose leading to the maximum effect (see E24)
Experimental: as §1, §2, §3

GM11335 = experiment: as above; format: cell-based, human; settings: GM11335 (PEX26); for Importing cells (%): at the lower dose leading to the maximum effect (see E20)
Experimental: as §1, §2, §3

PEX304 = experiment: as above; format: cell-based, human; settings: PEX304 (PEX1); for Importing cells (%): at the lower dose leading to the maximum effect (see E14)
Experimental: as §1, §2, §3

PEX506 = experiment: as above; format: cell-based, human; settings: PEX506 (PEX6); for Importing cells (%): at the lower dose leading to the maximum effect (see E16)
Experimental: as §1, §2, §3

PEX607 = experiment: as above; format: cell-based, human; settings: PEX607 (PEX6); for Importing cells (%): at the lower dose leading to the maximum effect (see E18)
Experimental: as §1, §2, §3

[5] = Homo sapiens, 72 h, dose response with 6 concentrations

In the case of `O=C(CCCCCCNC(=O)c1cnc(N(c2ccccc2)c2ccccc2)nc1)NO` [Ricolinostat], the “% Importing cells” value (GM16513 cells [1]; 1.3 µM) is reported as 30%, the “% Importing cells” value (GM16513 cells [1]; 10 µM) is reported as 89% and the EC50 (GM16513 cells [1]; Homo sapiens, 72 h, dose response with 6 concentrations, read-out: EC50) is reported as 2760 nM. The Emax (GM16513 cells [1]; [5]) was 96%, the “% PI+ cells” value (GM16513 cells [2]; 1.3 µM) was 2% and the “% PI+ cells” value (GM16513 cells [2]; 10 µM) was 5%. For the same molecule, the “Concentration (lower dose leading to the maximum effect)” value (PEX405 cells [3]) was 10 µM, the “Importing cells (%)” value (PEX405 cells [3]) was 27% and the “% Importing cells” value (PEX405 cells [3]; 1.3 µM) was 4%. The “% Importing cells” value (PEX405 cells [3]; 10 µM) was 35%, the “% PI+ cells” value (PEX405 cells [4]; 1.3 µM) was 1% and the “% PI+ cells” value (PEX405 cells [4]; 10 µM) was 1%. The “Concentration (lower dose leading to the maximum effect)” value (GM 16865) was 10 µM, the “Importing cells (%)” value (GM 16865) was 20% and the “Concentration (lower dose leading to the maximum effect)” value (GM 17398) was 30 µM. The “Importing cells (%)” value (GM 17398) was 0%, the “Concentration (lower dose leading to the maximum effect)” value (GM11335) was 10 µM and the “Importing cells (%)” value (GM11335) was 18%. The “Concentration (lower dose leading to the maximum effect)” value (PEX304) was 10 µM, the “Importing cells (%)” value (PEX304) was 5% and the “Concentration (lower dose leading to the maximum effect)” value (PEX506) was 0.33 µM. For the same molecule, the “Importing cells (%)” value (PEX506) was 55%, the “Concentration (lower dose leading to the maximum effect)” value (PEX607) was 3 µM and the “Importing cells (%)” value (PEX607) was 40%.
In the case of `O=C(CCCCCCC(=O)Nc1ccccc1)NO` [Vorinostat], the “% Importing cells” value (GM16513 cells [1]; 1.3 µM) is reported as 35%, the “% Importing cells” value (GM16513 cells [1]; 10 µM) is reported as 96% and the Emax (GM16513 cells [1]; [5]) is reported as 90%. For the same molecule, the “% PI+ cells” value (GM16513 cells [2]; 1.3 µM) was 2%, the “% PI+ cells” value (GM16513 cells [2]; 10 µM) was 9% and the “Concentration (lower dose leading to the maximum effect)” value (PEX405 cells [3]) was 10 µM. The “Importing cells (%)” value (PEX405 cells [3]) was 16%, the “% Importing cells” value (PEX405 cells [3]; 1.3 µM) was 13% and the “% Importing cells” value (PEX405 cells [3]; 10 µM) was 16%. For the same molecule, the “% PI+ cells” value (PEX405 cells [4]; 1.3 µM) was 1%, the “% PI+ cells” value (PEX405 cells [4]; 10 µM) was 9% and the “Concentration (lower dose leading to the maximum effect)” value (GM 16865) was 3 µM. For the same molecule, the “Importing cells (%)” value (GM 16865) was 27%, the “Concentration (lower dose leading to the maximum effect)” value (GM 17398) was 30 µM and the “Importing cells (%)” value (GM 17398) was 2%. The “Concentration (lower dose leading to the maximum effect)” value (GM11335) was 3 µM, the “Importing cells (%)” value (GM11335) was 25% and the “Concentration (lower dose leading to the maximum effect)” value (PEX304) was 3 µM. For the same molecule, the “Importing cells (%)” value (PEX304) was 8%, the “Concentration (lower dose leading to the maximum effect)” value (PEX506) was 0.33 µM and the “Importing cells (%)” value (PEX506) was 57%. For the same molecule, the “Concentration (lower dose leading to the maximum effect)” value (PEX607) was 3 µM and the “Importing cells (%)” value (PEX607) was 48%.
